Source: the supplement of paper PMC11208160

Test: recombinant UMI read abundance after kanamycin selection (control-corrected) (log10(CPM+1)); higher = more efficient recombination; extreme values may be limits of the assay; sequences stand for … in AGTGCAGAGAAAATCGGCCAGTTTTCTCTGCCTGCAGTCCGCATGCCGTGGGACCCCTTGGGTTCTAACCTGTTGCCTAGATTTATGCAGCGGACTGCCTTTCTCCCAAAGTGATAAACCGG…AGGTTGGTTTCACT; site = the 11-nt donor
In short: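 Values are reported as log10(CPM+1), obtained by converting sequencing counts to CPM, averaging replicates and scaling by control-derived factors. The counts came from recombinant UMIs amplified by PCR across the donor–target junction. These UMIs came from a pooled Escherichia coli screen of donor and donor-binding-loop pairs for the IS621 bridge recombinase, plated with IPTG (0.07 mM) plus kanamycin or left unselected, in two replicates each.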
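Also: IS621 bridge recombinase in Escherichia coli cells against a fixed T5 target plasmid.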

Sequence | recombinant UMI read abundance (log10)
TGCTAGGCATGGACCGGTTTTCCCGGTAATCCGTATTTGGC (site TGCTAGGCTAC) | 0.0365
TGCTAGGCATGGACCGGTTTTCCCGGTAATCCGTATTTGGC (site TGCTAGGCTCC) | 0.013
TGCTAGGCATGGACCGGTTTTCCCGGTAATCCGTATTTGGC (site TGCTAGGCTGC) | 0
TGCTAGGCATGGACCGGTTTTCCCGGTAATCCGTATTTGGC (site TGCTAGGCTTC) | 0.0105
TGCTAGGCATGGACCGGTTTTCCCGGTAATCCGTATTTGTT (site TGCTAGGCTAA) | 0.282
TGCTAGGCATGGACCGGTTTTCCCGGTAATCCGTATTTGTT (site TGCTAGGCTAC) | 0.00683
TGCTAGGCATGGACCGGTTTTCCCGGTAATCCGTATTTGTT (site TGCTAGGCTAG) | 0.00242
TGCTAGGCATGGACCGGTTTTCCCGGTAATCCGTATTTGTT (site TGCTAGGCTAT) | 0
TGCTGCCCATGGACCGGTTTTCCCGGTAATCCGTATTTGTC (site TGCTGCCCTGA) | 0.338
TGGAACCCATGGACCGGTTTTCCCGGTAATCCGTATTTGTT (site CGGAATCCTAA) | 0
TGGAACCCATGGACCGGTTTTCCCGGTAATCCGTATTTGTT (site TGGAACCCTAA) | 1.15
TGGAAGACATGGACCGGTTTTCCCGGTAATCCGTATTTGTA (site AGGAAGACTTG) | 0.00598
TGGAAGACATGGACCGGTTTTCCCGGTAATCCGTATTTGTA (site TGGAAGACTTA) | 2.36
TGGAAGTCATGGACCGGTTTTCCCGGTAATCCGTATTTGGC (site TGGAAGTCTGC) | 2.31
TGGAATACATGGACCGGTTTTCCCGGTAATCCGTATTTGTG (site TGGAATACTCA) | 1.12
TGGAATCCATGGACCGGTTTTCCCGGTAATCCGTATTTGGT (site CGGAATCCTAA) | 0
TGGAATCCATGGACCGGTTTTCCCGGTAATCCGTATTTGGT (site TGGAATCCTAC) | 0
TGGACTACATGGACCGGTTTTCCCGGTAATCCGTATTTGGA (site TGGACTACTTC) | 0.786
TGGACTTCATGGACCGGTTTTCCCGGTAATCCGTATTTGTG (site TGGACTTCTCA) | 0.248
TGGATTCCATGGACCGGTTTTCCCGGTAATCCGTATTTGAT (site TGGATTCCTAT) | 0
TGGCAGGCATGGACCGGTTTTCCCGGTAATCCGTATTTGGC (site TGGCAGGCTGC) | 0.909
TGGCAGGCATGGACCGGTTTTCCCGGTAATCCGTATTTGGC (site TGGCCGGCTGC) | 0
TGGCAGGCATGGACCGGTTTTCCCGGTAATCCGTATTTGGC (site TGGCGGGCTGC) | 0
TGGCAGGCATGGACCGGTTTTCCCGGTAATCCGTATTTGGC (site TGGCTGGCTGC) | 0
TGGCCGGCATGGACCGGTTTTCCCGGTAATCCGTATTTGCC (site TGGCCGGCTGA) | 0.00339

Sequence | recombinant UMI read abundance (log10)
TGGCCGGCATGGACCGGTTTTCCCGGTAATCCGTATTTGCC (site TGGCCGGCTGC) | 0
TGGCCGGCATGGACCGGTTTTCCCGGTAATCCGTATTTGCC (site TGGCCGGCTGG) | 1.05
TGGCCGGCATGGACCGGTTTTCCCGGTAATCCGTATTTGCC (site TGGCCGGCTGT) | 0.00896
TGGCCGTCATGGACCGGTTTTCCCGGTAATCCGTATTTGGC (site TGGCCGACTGC) | 0
TGGCCGTCATGGACCGGTTTTCCCGGTAATCCGTATTTGGC (site TGGCCGCCTGC) | 0
TGGCCGTCATGGACCGGTTTTCCCGGTAATCCGTATTTGGC (site TGGCCGGCTGC) | 0
TGGCCGTCATGGACCGGTTTTCCCGGTAATCCGTATTTGGC (site TGGCCGTCTGC) | 0.431
TGGCGAGCATGGACCGGTTTTCCCGGTAATCCGTATTTGTT (site TGGCGAGCTAA) | 1.04
TGGCGGACATGGACCGGTTTTCCCGGTAATCCGTATTTGCA (site TGGCGGACTTG) | 1.67
TGGCTTACATGGACCGGTTTTCCCGGTAATCCGTATTTGGC (site TGGCTTACTGC) | 0.536
TGGGAATCATGGACCGGTTTTCCCGGTAATCCGTATTTGCG (site TAGGAATCTCG) | 1.35
TGGGAATCATGGACCGGTTTTCCCGGTAATCCGTATTTGCG (site TCGGAATCTCG) | 1.85
TGGGAATCATGGACCGGTTTTCCCGGTAATCCGTATTTGCG (site TGGGAATCTCG) | 2.5
TGGGAATCATGGACCGGTTTTCCCGGTAATCCGTATTTGCG (site TTGGAATCTCG) | 0.459
TGGGAGACATGGACCGGTTTTCCCGGTAATCCGTATTTGCA (site AGGAAGACTTG) | 0.261
TGGGAGACATGGACCGGTTTTCCCGGTAATCCGTATTTGCA (site TGGGAGACTTG) | 1.7
TGGGAGGCATGGACCGGTTTTCCCGGTAATCCGTATTTGAC (site TGGGAGGCTGT) | 1.46
TGGGTGCCATGGACCGGTTTTCCCGGTAATCCGTATTTGAC (site TGGGTGCCTGT) | 0
TGGTAGCCATGGACCGGTTTTCCCGGTAATCCGTATTTGTT (site TGGTAGCCTAA) | 0.256
TGGTCATCATGGACCGGTTTTCCCGGTAATCCGTATTTGAG (site TGGTCATCTCT) | 0.0288
TGGTGCCCATGGACCGGTTTTCCCGGTAATCCGTATTTGGT (site TGGTGCCCTAC) | 0.00779
TGGTGTCCATGGACCGGTTTTCCCGGTAATCCGTATTTGAG (site TGGTGTCCTCT) | 0.0312
TGGTTATCATGGACCGGTTTTCCCGGTAATCCGTATTTGTC (site TGGTTATCTGA) | 0.968
TGTAAATCATGGACCGGTTTTCCCGGTAATCCGTATTTGTT (site TGTAAATCTAA) | 1.13
TGTAACGCATGGACCGGTTTTCCCGGTAATCCGTATTTGTG (site TGTAACGCTCA) | 0.0113

Sequence | recombinant UMI read abundance (log10)
TGTACAACATGGACCGGTTTTCCCGGTAATCCGTATTTGAC (site TGTACAACTGT) | 0.315
TGTACAACATGGACCGGTTTTCCCGGTAATCCGTATTTGAC (site TGTACACCTGT) | 0
TGTACAACATGGACCGGTTTTCCCGGTAATCCGTATTTGAC (site TGTACAGCTGT) | 0
TGTACAACATGGACCGGTTTTCCCGGTAATCCGTATTTGAC (site TGTACATCTGT) | 0.295
TGTACACCATGGACCGGTTTTCCCGGTAATCCGTATTTGTC (site TGTACACCTGA) | 0
TGTACACCATGGACCGGTTTTCCCGGTAATCCGTATTTGTC (site TGTACACCTGC) | 0
TGTACACCATGGACCGGTTTTCCCGGTAATCCGTATTTGTC (site TGTACACCTGG) | 0
TGTACACCATGGACCGGTTTTCCCGGTAATCCGTATTTGTC (site TGTACACCTGT) | 0
TGTACAGCATGGACCGGTTTTCCCGGTAATCCGTATTTGAC (site TGTACAACTGT) | 0
TGTACAGCATGGACCGGTTTTCCCGGTAATCCGTATTTGAC (site TGTACACCTGT) | 0
TGTACAGCATGGACCGGTTTTCCCGGTAATCCGTATTTGAC (site TGTACAGCTGT) | 1.75
TGTACAGCATGGACCGGTTTTCCCGGTAATCCGTATTTGAC (site TGTACATCTGT) | 0.647
TGTACATCATGGACCGGTTTTCCCGGTAATCCGTATTTGAC (site TGTACAACTGT) | 0
TGTACATCATGGACCGGTTTTCCCGGTAATCCGTATTTGAC (site TGTACACCTGT) | 0
TGTACATCATGGACCGGTTTTCCCGGTAATCCGTATTTGAC (site TGTACAGCTGT) | 0
TGTACATCATGGACCGGTTTTCCCGGTAATCCGTATTTGAC (site TGTACATCTGT) | 0
TGTAGCTCATGGACCGGTTTTCCCGGTAATCCGTATTTGAA (site TGTAGCTCTTT) | 0.301
TGTAGCTCATGGACCGGTTTTCCCGGTAATCCGTATTTGGG (site TGTAGCTCTCC) | 0.0269
TGTAGGACATGGACCGGTTTTCCCGGTAATCCGTATTTGAA (site TGTAGGACTTT) | 0.373
TGTCAAACATGGACCGGTTTTCCCGGTAATCCGTATTTGGG (site TGTCAAACTCC) | 0.00984
TGTCAGACATGGACCGGTTTTCCCGGTAATCCGTATTTGTG (site TGTCAGACTCA) | 0.0321
TGTCCTACATGGACCGGTTTTCCCGGTAATCCGTATTTGGA (site TGTCCTACTTC) | 0.0197
TGTCCTGCATGGACCGGTTTTCCCGGTAATCCGTATTTGTT (site TGTCCTGCTAA) | 0.011
TGTCGCGCATGGACCGGTTTTCCCGGTAATCCGTATTTGCA (site TGTCGCGCTTG) | 0.897
TGTCGGACATGGACCGGTTTTCCCGGTAATCCGTATTTGCG (site TGTCGGACTCG) | 1.4
